What follows are molecules tested against Human complement C1s enzyme (Homo sapiens (Human), UniProt P09871) (assay: Human C1s enzyme assay). Conditions: Human C1s enzyme assay of Example 3; read-out: IC50 (Stars).
Type: biochemical
Outline: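 IC50 derived by nonlinear regression of rate versus concentration, with rate taken from A405 kinetics (30 s intervals, 30 min) after adding 100 μM each Z-L-Lys-SBzl and DTNB. C1s from human serum, 1.16 nM, exposed to compound for 5 min at RT beforehand; buffer 50 mM Tris, 1 M NaCl, pH 7.5.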

Human complement C1s enzyme, sequence (P09871 438-688 limits assumed): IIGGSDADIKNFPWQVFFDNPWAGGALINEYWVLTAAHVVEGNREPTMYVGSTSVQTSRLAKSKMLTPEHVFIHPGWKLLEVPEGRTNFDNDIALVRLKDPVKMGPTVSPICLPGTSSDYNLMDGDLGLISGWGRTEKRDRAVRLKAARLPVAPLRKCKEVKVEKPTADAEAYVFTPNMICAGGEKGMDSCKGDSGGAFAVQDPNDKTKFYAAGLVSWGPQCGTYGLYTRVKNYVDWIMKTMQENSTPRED
Human complement C1s enzyme, sequence (P09871 16-437 partner limits assumed): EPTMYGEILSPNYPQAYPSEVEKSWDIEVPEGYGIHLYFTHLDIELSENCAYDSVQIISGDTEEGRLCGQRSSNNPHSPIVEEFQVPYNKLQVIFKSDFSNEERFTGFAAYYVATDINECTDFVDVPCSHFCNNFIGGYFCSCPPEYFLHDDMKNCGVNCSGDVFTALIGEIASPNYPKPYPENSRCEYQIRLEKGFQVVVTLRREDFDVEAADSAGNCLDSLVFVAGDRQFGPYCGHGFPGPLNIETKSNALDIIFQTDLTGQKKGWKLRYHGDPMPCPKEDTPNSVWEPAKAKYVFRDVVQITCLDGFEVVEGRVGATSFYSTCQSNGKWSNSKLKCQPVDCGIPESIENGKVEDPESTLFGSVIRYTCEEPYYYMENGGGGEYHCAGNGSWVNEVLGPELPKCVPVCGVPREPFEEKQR

Structure (SMILES) | IC50 [nM]
C[C@@H](NC(=O)[C@@H]1C[C@@H](OC(F)F)CN1C(=O)CNC(=O)c1ccc2c(c1)-c1ccccc1C2(F)F)c1cc(C(=N)N)cs1 [Compound 9, (2S,4R)—N—((R)-1-(4-carbamimidoylthiophen-2-yl)ethyl)-1-((9,9-difluoro-9H-fluorene-3-carbonyl)glycyl)-4-(difluoromethoxy)pyrrolidine-2-carboxamide] | < 100
N=C(N)c1cc(CNC(=O)[C@@H]2CC3(CN2C(=O)CNC(=O)c2ccc(-c4ccc(F)cc4F)cc2)OCCO3)cs1 [Compound 155, (S)-N-((5-carbamimidoylthiophen-3-yl)methyl)-7-((2′,4′-difluoro-[1,1′-biphenyl]-4-carbonyl)glycyl)-1,4-dioxa-7-azaspiro[4.4]nonane-8-carboxamide] | < 100
C[C@@H](NC(=O)[C@@H]1CC2(CN1C(=O)CNC(=O)c1ccc3c(c1)C(F)(F)c1ccccc1-3)OCCO2)c1cc(C(=N)N)cs1 [Compound 138, (S)—N—((R)-1-(4-carbamimidoylthiophen-2-yl)ethyl)-7-((9,9-difluoro-9H-fluorene-7-carbonyl)glycyl)-1,4-dioxa-7-azaspiro[4.4]nonane-8-carboxamide] | < 100

Continued, values first:

IC50 [nM] | Structure (SMILES)
< 100 | N=C(N)c1csc(CNC(=O)[C@@H]2CC3(CN2C(=O)CNC(=O)c2ccc(-c4cc(F)ccc4F)cc2)OCCO3)c1 [Compound 188, (S)—N-((4-carbamimidoylthiophen-2-yl)methyl)-7-((2′,5′-difluoro-[1,1′-biphenyl]-4-carbonyl)glycyl)-1,4-dioxa-7-azaspiro[4.4]nonane-8-carboxamide]
< 100 | C[C@@H](NC(=O)[C@@H]1CC2(CN1C(=O)CNC(=O)c1ccc(Oc3ccc(F)cc3)cc1)OCCO2)c1ccc(C(=N)N)s1 [Compound 85, (S)—N—((R)-1-(5-carbamimidoylthiophen-2-yl)ethyl)-7-((4-(4-fluorophenoxy)benzoyl)glycyl)-1,4-dioxa-7-azaspiro[4.4]nonane-8-carboxamide]
> 1000 | CO[C@@H]1C[C@@H](C(=O)NCc2cc(-c3c[nH]c([N+](=O)[O-])n3)cs2)N(C(=O)CNC(=O)c2ccc(Oc3ccc(F)cc3)cc2)C1 [Compound 156, (2S,4R)-1-((4-(4-fluorophenoxy)benzoyl)glycyl)-4-methoxy-N-((4-(2-nitro-1H-imidazol-4-yl)thiophen-2-yl)methyl)pyrrolidine-2-carboxamide]
< 100 | CS(=O)(=O)c1ccc(-c2ccc(C(=O)NCC(=O)N3CC4(C[C@H]3C(=O)NCc3cc(C(=N)N)cs3)OCCO4)cc2)cc1 [Compound 183, (S)—N-((4-carbamimidoylthiophen-2-yl)methyl)-7-((4′-(methylsulfonyl)-[1,1′-biphenyl]-4-carbonyl)glycyl)-1,4-dioxa-7-azaspiro[4.4]nonane-8-carboxamide]

Same assay, conditions: Human complement C1s enzyme 1.16 nM, substrate Z-L-Lys-SBzl 100 μM, assay of Example 3; read-out: IC50 (Stars)

IC50 [nM] | Structure (SMILES)
< 100 | C[C@@H](NC(=O)[C@@H]1C[C@H](c2cccnc2)CN1C(=O)CNC(=O)c1ccc2c(c1)-c1ccccc1C2(F)F)c1cc(C(=N)N)cs1 [Compound 355, (2S,4R)—N—((R)-1-(4-carbamimidoylthiophen-2-yl)ethyl)-1-((9,9-difluoro-9H-fluorene-3-carbonyl)glycyl)-4-(pyridin-3-yl)pyrrolidine-2-carboxamide]
< 100 | C[C@@H](NC(=O)[C@@H]1CC2(CN1C(=O)CN1Cc3ccc(-c4ccccc4)cc3C1=O)OCCO2)c1cc(C(=N)N)cs1 [Compound 386, (S)—N—((R)-1-(4-carbamimidoylthiophen-2-yl)ethyl)-7-(2-(1-oxo-6-phenylisoindolin-2-yl)acetyl)-1,4-dioxa-7-azaspiro[4.4]nonane-8-carboxamide]
< 100 | C[C@@H](NC(=O)[C@@H]1C[C@@H](OC(F)F)CN1C(=O)CNC(=O)c1ccc2c(c1)sc1ccccc12)c1cc(C(=N)N)cs1 [Compound 352, (2S,4R)—N—((R)-1-(4-carbamimidoylthiophen-2-yl)ethyl)-1-((dibenzo[b,d]thiophene-3-carbonyl)glycyl)-4-(difluoromethoxy)pyrrolidine-2-carboxamide]

Source: patent US20250346585A1 (Alexion Pharmaceuticals, Inc., priority 2022, published 2025)
